Experimental data taken from ChEMBL document CHEMBL5346962, “Discovery of Sulanemadlin (ALRN-6924), the First Cell-Permeating, Stabilized α-Helical Peptide in Clinical Development” (J Med Chem, 2023).
The source made the active and inactive calls. The calls are words filed in the database; no cut-off is given here.

What was measured:
[1] = Induction of cell cycle arrest in human CD34+ cells assessed as accumulation at S phase at 5 uM incubated for 24 hrs by flow cytometry (reference value: 27.5 +/- 5.8%); assay type: toxicity, cell-based; conditions: cd34-positive (myeloid/lymphoid) cell
[2] = Induction of cell cycle arrest in human CD34+ cells assessed as accumulation at S phase at 10 uM incubated for 24 hrs by flow cytometry (reference value: 27.5 +/- 5.8%); assay type: toxicity, cell-based; conditions: cd34-positive (myeloid/lymphoid) cell
[3] = Induction of cell cycle arrest in human CD34+ cells at 1 uM incubated for 24 hrs followed by compound wash-out and addition of fresh-medium containing compounds measured after 24 hrs by flow cytometry; assay type: toxicity, cell-based; conditions: cd34-positive (myeloid/lymphoid) cell, 48 h
[4] = tested on: Fibroblast; assay: Protection against chemotherapy-induced apoptosis in human fibroblast assessed as decrease in caspase-3/7 level preincubated for 16 hrs followed by doxorubicin addition measured after 32 hrs; assay type: functional, cell-based; conditions: dose 4.6-10 µM, time 48.0 hrs
[5] = tested on: Fibroblast; assay: Protection against chemotherapy-induced apoptosis in human fibroblast assessed as decrease in caspase-3/7 level preincubated for 16 hrs followed by SN-38 addition measured after 32 hrs; assay type: functional, cell-based; conditions: dose 4.6-10 µM, time 48.0 hrs
[6] = tested on: Fibroblast; assay: Protection against chemotherapy-induced apoptosis in human fibroblast assessed as decrease in caspase-3/7 level preincubated for 16 hrs followed by actinomycin D addition measured after 32 hrs; assay type: functional, cell-based; conditions: dose 4.6-10 µM, time 48.0 hrs
[7] = tested on: Fibroblast; assay: Protection against chemotherapy-induced apoptosis in human fibroblast assessed as decrease in caspase-3/7 level preincubated for 16 hrs followed by docetaxel trihydrate addition measured after 32 hrs; assay type: functional, cell-based; conditions: dose 4.6-10 µM, time 48.0 hrs
[8] = tested on: BT-474; assay: […] chemotherapy-induced apoptosis in human BT-474 cells assessed as decrease in caspase-3/7 level at 4.6 to 10 uM preincubated for 16 hrs followed by docetaxel addition measured after 32 hrs; assay type: functional, cell-based; conditions: dose 4.6-10 µM, time 48.0 hrs
[9] = tested on: SJSA-1; assay: Antitumor activity against human SJSA-1 cells xenografted in athymic nu/nu mouse […] assessed as tumor growth inhibition administered intravenously thrice a week measured for 15 days; assay type: functional, cell-based; conditions: dose 13.3 mg/kg, route iv, time 15.0 day
[10] = tested on: MCF7; assay: Antitumor activity against human MCF7 cells xenografted in athymic nu/nu mouse […] assessed as tumor growth inhibition administered intravenously twice a week measured for 30 days; assay type: functional, cell-based; conditions: dose 5-20 mg/kg, route iv, time 30.0 day
[11] = tested on: MV4-11; assay: Antitumor activity against human MV4-11 cells xenografted in athymic nu/nu mouse model of AML assessed as tumor growth inhibition; assay type: functional, cell-based
[12] = tested on: MCF7; assay: Antitumor activity against human MCF7 cells xenografted in athymic nude BALB/c mouse assessed as upregulation of p53 protein level at 20 mg/kg, iv by immunohistochemical analysis; assay type: functional, organism-based; conditions: time <= 48.0 hrs, TDE = time-dependent effect
[13] = tested on: MCF7; assay: Antitumor activity against human MCF7 cells xenografted in athymic nude BALB/c mouse assessed as increase in cPARP protein level at 20 mg/kg, iv by immunohistochemical analysis; assay type: functional, organism-based; conditions: time <= 48.0 hrs, TDE = time-dependent effect
[14] = tested on: Bone marrow cell; assay: Upregulation of p21 mRNA level in bone marrow cells of C57BL/6 mouse at 2.4 mg/kg, iv measured for 24 hrs by qRT-PCR analysis; assay type: functional, organism-based
[15] = tested on: Bone marrow cell; assay: Upregulation of serum MIC-1 level […] of C57BL/6 mouse at 2.4 mg/kg, iv administered every 8 hrs measured for 24 hrs by ELISA method; assay type: functional, organism-based
[16] = tested on: Bone marrow cell; assay: Upregulation of p21 expression level in bone marrow cells of C57BL/6 mouse at 2.4 mg/kg, iv administered every 8 hrs measured for 16 hrs by immunohistochemical analysis; assay type: functional, organism-based
[17] = tested on: Bone marrow cell; assay: Downregulation of Ki67 expression level in bone marrow cells of C57BL/6 mouse at 2.4 mg/kg, iv administered every 8 hrs measured for 16 hrs by immunohistochemical analysis; assay type: functional, organism-based
[18] = tested on: Mus musculus; assay: Protection against topotecan-induced neutropenia in C57BL/6 mouse assessed as increase in neutrophil level at 2.4 mg/kg administered on day 0 to 4 and co-administered 30 mins prior to topotecan on day 1 to 4 followed by topotecan administration on day 5 measured on day 7 by CBC analysis relative to control; assay type: functional; conditions: time 7 day
[19] = tested on: NCI-H211; assay: Antitumor activity against human NCI-H211 cells xenografted in athymic nu/nu mouse assessed as reduction in tumor volume at 8 mg/kg administered on day 0 to 4 and co-administered 30 mins prior to topotecan on day 1 to 4 followed by topotecan administration on day 5 measured for 90 days; assay type: functional, organism-based; conditions: time 90.0 day
[20] = Half life in mouse at 5 mg/kg by LC-MS/MS analysis; assay type: ADME, organism-based; conditions: in vivo
[21] = AUC (all) in rat at 2.5 mg/kg by LC-MS/MS analysis; assay type: ADME, organism-based; set-up: dose 2.5 mg/kg; conditions: in vivo
[22] = Half life in rat at 2.5 mg/kg by LC-MS/MS analysis; assay type: ADME, organism-based; conditions: in vivo
[23] = Clearance in rat at 2.5 mg/kg by LC-MS/MS analysis; assay type: ADME, organism-based; conditions: in vivo
[24] = AUC (all) in rat at 5 mg/kg by LC-MS/MS analysis; assay type: ADME, organism-based; set-up: dose 5 mg/kg; conditions: in vivo
[25] = Half life in rat at 5 mg/kg by LC-MS/MS analysis; assay type: ADME, organism-based; conditions: in vivo
[26] = Clearance in rat at 10 mg/kg by LC-MS/MS analysis; assay type: ADME, organism-based; conditions: in vivo
[27] = Clearance in cynomolgous monkey at 5 mg/kg by LC-MS/MS analysis; assay type: ADME, organism-based, Macaca fascicularis; conditions: cynomolgus monkey, in vivo
[28] = Clearance in cynomolgous monkey at 10 mg/kg by LC-MS/MS analysis; assay type: ADME, organism-based, Macaca fascicularis; conditions: cynomolgus monkey, in vivo
[29] = Plasma protein binding in mouse at 2 to 50 uM; assay type: ADME, cell-free; conditions: dose 2-50 µM, read-out: PPB (converted)
[30] = Plasma protein binding in dog at 2 to 50 uM; assay type: ADME, cell-free, Canis lupus familiaris; conditions: dose 2-50 µM, read-out: PPB (converted)
[31] = Plasma protein binding in mouse at 250 uM; assay type: ADME, cell-free; conditions: read-out: PPB (converted)
[32] = Plasma protein binding in monkey at 250 uM; assay type: ADME, cell-free, Macaca mulatta; conditions: rhesus monkey, read-out: PPB (converted)
[33] = Plasma protein binding in human at 250 uM; assay type: ADME, cell-free; conditions: read-out: PPB (converted)
[34] = Plasma protein binding in human assessed as unbound fraction upto 150 uM; assay type: ADME, cell-free
[35] = Plasma protein binding in human assessed as unbound fraction at >200 uM; assay type: ADME, cell-free
[36] = AUC (0 to 24 hrs) in plasma of athymic nu/nu mouse xenografted with human SJSA-1 cells at 25 mg/kg, iv measured for 24 hrs by LC-MS-MS analysis; assay type: ADME, organism-based; set-up: time 24 hrs, dose 25 mg/kg, route iv; conditions: in vivo
[37] = Half life in plasma of athymic nu/nu mouse xenografted with human SJSA-1 cells at 25 mg/kg, iv measured for 24 hrs by LC-MS-MS analysis; assay type: ADME, organism-based
[38] = Drug uptake in tumor of athymic nu/nu mouse xenografted with human SJSA-1 cells assessed as half life of metabolite ALRN-8714 at 25 mg/kg, iv measured for 24 hrs by LC-MS-MS analysis; assay type: ADME, organism-based, Neoplasm; conditions: in vivo
[39] = Drug uptake in plasma of athymic nu/nu mouse xenografted with human SJSA-1 cells assessed as AUC (0 to 24 hrs) of metabolite ALRN-8714 at 25 mg/kg, iv measured for 24 hrs by LC-MS-MS analysis; assay type: ADME, organism-based; set-up: time 24 hrs, dose 25 mg/kg, route iv; conditions: in vivo
[40] = Drug uptake in plasma of athymic nu/nu mouse xenografted with human SJSA-1 cells assessed as half life of metabolite ALRN-8714 at 25 mg/kg, iv measured for 24 hrs by LC-MS-MS analysis; assay type: ADME, organism-based; conditions: in vivo
[41] = Toxicity in rat assessed as NOAEL administered twice weekly for 4 weeks; conditions: in vivo

In the case of `CC(=O)N[C@@H](CC(C)C)C(=O)N[C@H](C(=O)N[C@@H](Cc1ccccc1)C(=O)N[C@]1(C)CCCCCC/C=C/CCC[C@@](C)(C(=O)N[C@@H](C)C(=O)N[C@@H](C)C(=O)N[C@@H](C)C(=O)N[C@@H](C)C(=O)N[C@@H](C)C(=O)N[C@H](C)C(N)=O)NC(=O)[C@H](CC(C)C)NC(=O)[C@H](CCC(N)=O)NC(=O)[C@H](C)NC(=O)[C@H](Cc2c[nH]c3ccccc23)NC(=O)[C@H](Cc2ccc(O)cc2)NC(=O)[C@H](CCC(=O)O)NC1=O)[C@@H](C)O`, the Activity [1] is reported as 0.22%, the Activity [2] is reported as 0.22% and the Activity [3] is reported as “Non-Toxic”. The Activity [4] was “Dose-Dependent Effect”, the Activity [5] was “Dose-Dependent Effect” and the Activity [6] was “Dose-Dependent Effect”. The Activity [7] was “Dose-Dependent Effect”, the Activity [8] was “inactive” and the Activity [9] was “Dose-Dependent Effect”. For the same compound, the Activity [10] was “Dose-Dependent Effect”, the Activity [11] was “Dose-Dependent Effect” and the Activity [12] was “Tde”. The Activity [13] was “Tde”, the Activity [14] was “Active” and the Activity [15] was “Active”. The Activity [16] was “Active”, the Activity [17] was “Active” and the Activity [18] was 84%. The Activity [19] was “Active”, the half-life [20] was 2.2 h and the AUC [21] was 90.5 µg·h/mL. For the same compound, the half-life [22] was 1.4 h, the clearance [23] was 0.028 L/h/kg and the AUC [24] was 223 µg·h/mL. For the same compound, the half-life [25] was 2 h, the clearance [26] was 0.019 L/h/kg and the clearance [27] was 0.0059 L/h/kg. It also gave a clearance [28] of 0.0076 L/h/kg, a fraction unbound at up to 50 µM [29] of 0.08 and a fraction unbound at up to 50 µM [30] of 0.08. The fraction unbound at 250 µM [31] was 0.02, the fraction unbound at 250 µM [32] was 0.12 and the fraction unbound at 250 µM [33] was 0.19. The fraction unbound at up to 150 µM [34] was 0.03, the fraction unbound [35] was 0.12 and the AUC [36] was 3180 µg·h/mL. The half-life [37] was 2.8 h, the t1/2 [38] was 9 h and the AUC [39] was 85 µg·h/g. For the same compound, the t1/2 [40] was 8.4 h and the NOAEL at 672 h [41] was 2.5 mg/kg.
